Experimental findings from PubChem BioAssay (NCI) are described below.

Test systems include UACC-62 melanoma; OVCAR-8 ovarian; CAKI-1 renal; SF-268 CNS; K-562 leukemia; HCT-15 colon; SK-MEL-2 melanoma; CCRF-CEM leukemia; LOX IMVI melanoma; UACC-257 melanoma.
Holding throughout (test): NCI anticancer screen, dose series, 48 h

SMILES strings stand for the structures.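 How tested: cells in 96-well plates exposed to compound for 48 hours at five concentrations. GI50 marks 50% less growth. TGI marks complete inhibition of growth.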

For the compound `N#Cc1ccc2[nH]cc(Cc3c[nH]c4ccc(C#N)cc34)c2c1`, the GI50 in the experiment with UACC-62 melanoma is 8.42 µM; with OVCAR-8 ovarian, 10.2 µM; with CAKI-1 renal it was 8.92 µM; in the experiment with SF-268 CNS, 11.5 µM; in the experiment on K-562 leukemia, 14.7 µM; in the experiment on HCT-15 colon, 13.5 µM. The GI50 was 9.63 µM with SK-MEL-2 melanoma, 12.8 µM in the experiment on CCRF-CEM leukemia, 6.99 µM in the experiment with LOX IMVI melanoma and 10.1 µM in the experiment on UACC-257 melanoma. For the same compound, the TGI in the experiment on UACC-62 melanoma is 20.1 µM; in the experiment on OVCAR-8 ovarian, 28.2 µM; in the experiment with CAKI-1 renal, 22.1 µM; in the experiment with SF-268 CNS, 31.7 µM; in the experiment on K-562 leukemia, above 50 µM; with HCT-15 colon it was 42.2 µM. Besides, the TGI in the experiment with SK-MEL-2 melanoma amounted to 21 µM; with CCRF-CEM leukemia it was 39.4 µM; in the experiment on LOX IMVI melanoma, 18.9 µM; with UACC-257 melanoma, 23.4 µM.
